#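 Grown in 96-well plates, cells were treated for 48 hours with each compound at five concentrations. Insufficient inhibition: endpoint recorded as highest concentration tested. TGI marks complete inhibition of growth.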
# Experiments:
# Experiment in all cases: DTP human tumour cell line panel, 48 h
# [1] = system: OVCAR-4 ovarian
# [2] = system: SNB-19 CNS
# [3] = system: SK-OV-3 ovarian
# [4] = system: HOP-62 NSCLC
# [5] = system: MALME-3M melanoma
# [6] = system: CAKI-1 renal
# [7] = system: HS 578T breast
# [8] = system: COLO 205 colon
# [9] = system: NCI-H23 lung
# [10] = system: SNB-75 CNS
# [11] = system: MCF7 breast
# [12] = system: MOLT-4 leukemia
# [13] = system: K-562 leukemia
# [14] = system: OVCAR-5 ovarian
# [15] = system: NCI-H226 lung
# [16] = system: PC-3 prostate
# [17] = system: SN12C renal
# [18] = system: HOP-92 NSCLC
# [19] = system: SF-295 CNS
# [20] = system: DU-145 prostate
# [21] = system: M14 melanoma
# [22] = system: EKVX NSCLC
# [23] = system: NCI/ADR-RES ovarian
# [24] = system: UO-31 renal
# [25] = system: SR leukemia
# [26] = system: SK-MEL-28 melanoma
# [27] = system: UACC-62 melanoma
# [28] = system: KM12 colon
# [29] = system: LOX IMVI melanoma
# [30] = system: TK-10 renal
# [31] = system: HL-60(TB) leukemia
# [32] = system: UACC-257 melanoma
# [33] = system: U251 CNS
# [34] = system: MDA-MB-231 breast
# [35] = system: MDA-MB-435
# [36] = system: IGROV1 ovarian
# [37] = system: HT29 colon
# [38] = system: HCC-2998 colon
# [39] = system: RXF 393 renal
# [40] = system: SF-268 CNS
# [41] = system: SK-MEL-2 melanoma
# [42] = system: NCI-H522 lung
# [43] = system: MDA-N
# [44] = system: HCT-116 colon
# [45] = system: A549 NSCLC
# [46] = system: NCI-H460 lung
# [47] = system: ACHN renal
# [48] = system: CCRF-CEM leukemia
# [49] = system: SK-MEL-5 melanoma
# [50] = system: A498 renal
# [51] = system: SW-620 colon
# [52] = system: T-47D breast
# [53] = system: HCT-15 colon
# [54] = system: OVCAR-8 ovarian
# [55] = system: 786-0 renal
# [56] = system: BT-549 breast
# [57] = system: OVCAR-3 ovarian
smiles,measurement,setting,value
O=c1ccn(C/C=C/c2ccccc2)c(=S)n1C/C=C/c1ccccc1,TGI,[1],> 100 µM
same,TGI,[2],> 100 µM
same,TGI,[3],> 100 µM
same,TGI,[4],> 100 µM
same,TGI,[5],> 100 µM
same,TGI,[6],> 100 µM
same,TGI,[7],> 100 µM
same,TGI,[8],> 100 µM
same,TGI,[9],> 100 µM
same,TGI,[10],> 100 µM
same,TGI,[11],> 100 µM
same,TGI,[12],92.6 µM
same,TGI,[13],> 100 µM
same,TGI,[14],> 100 µM
same,TGI,[15],> 100 µM
same,TGI,[16],> 100 µM
same,TGI,[17],> 100 µM
same,TGI,[18],> 100 µM
same,TGI,[19],> 100 µM
same,TGI,[20],> 100 µM
same,TGI,[21],> 100 µM
same,TGI,[22],> 100 µM
same,TGI,[23],> 100 µM
same,TGI,[24],> 100 µM
same,TGI,[25],> 100 µM
same,TGI,[26],> 100 µM
same,TGI,[27],> 100 µM
same,TGI,[28],> 100 µM
same,TGI,[29],> 100 µM
same,TGI,[30],> 100 µM
same,TGI,[31],39.4 µM
same,TGI,[32],> 100 µM
same,TGI,[33],> 100 µM
same,TGI,[34],> 100 µM
same,TGI,[35],> 100 µM
same,TGI,[36],> 100 µM
same,TGI,[37],> 100 µM
same,TGI,[38],> 100 µM
same,TGI,[39],85.6 µM
same,TGI,[40],> 100 µM
same,TGI,[41],> 100 µM
same,TGI,[42],> 100 µM
same,TGI,[43],> 100 µM
same,TGI,[44],> 100 µM
same,TGI,[45],> 100 µM
same,TGI,[46],> 100 µM
same,TGI,[47],> 100 µM
same,TGI,[48],62.9 µM
same,TGI,[49],> 100 µM
same,TGI,[50],> 100 µM
same,TGI,[51],> 100 µM
same,TGI,[52],> 100 µM
same,TGI,[53],> 100 µM
same,TGI,[54],> 100 µM
same,TGI,[55],> 100 µM
same,TGI,[56],> 100 µM
same,TGI,[57],> 100 µM

# — PubChem BioAssay (NCI)
